# Results published in PubChem BioAssay AID1845217 (Molecular Pharmacology Branch, DTP, NCI, 2023).
# Tested on: VA-ES-BJ tumor spheroid viability
# Assay: Anticancer human tumor VA-ES-BJ cell line growth inhibition;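 further: spheroids exposed to compounds for seven days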;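 on viability, T/C: percent of DMSO vehicle control viability so 100% = untreated growth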
# Conditions: spheroids with HUVEC and MSC; for IC50: curve of first compound; for viability, T/C: stronger effect = lower value
# Procedure, shortened: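 Complex spheroids of malignant cells with endothelial cells and mesenchymal stem cells; agents alone or combined, from near clinical Cmax (or 10 microM if unknown) down in half-log steps, 0.25% DMSO final.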
# [1] = second compound 0.003 µM, first compound 0.0316 µM
# [2] = second compound 0.003 µM, first compound 0.1 µM
# [3] = second compound 0.003 µM, first compound 0.316 µM
# [4] = second compound 0.003 µM, first compound 1 µM
# [5] = second compound 0.003 µM, first compound 3.16 µM
# [6] = second compound 0.003 µM, first compound 10 µM
# [7] = second compound 0.00949 µM, first compound 0.0316 µM
# [8] = second compound 0.00949 µM, first compound 0.1 µM
# [9] = second compound 0.00949 µM, first compound 0.316 µM
# [10] = second compound 0.00949 µM, first compound 1 µM
# [11] = second compound 0.00949 µM, first compound 3.16 µM
# [12] = second compound 0.00949 µM, first compound 10 µM
# [13] = second compound 0.03 µM, first compound 0.0316 µM
# [14] = second compound 0.03 µM, first compound 0.1 µM
# [15] = second compound 0.03 µM, first compound 0.316 µM
# [16] = second compound 0.03 µM, first compound 1 µM
# [17] = second compound 0.03 µM, first compound 3.16 µM
# [18] = second compound 0.03 µM, first compound 10 µM
# [19] = second compound 0.0949 µM, first compound 0.0316 µM
# [20] = second compound 0.0949 µM, first compound 0.1 µM
# [21] = second compound 0.0949 µM, first compound 0.316 µM
# [22] = second compound 0.0949 µM, first compound 1 µM
# [23] = second compound 0.0949 µM, first compound 3.16 µM
# [24] = second compound 0.0949 µM, first compound 10 µM
# [25] = second compound 0.3 µM, first compound 0.0316 µM
# [26] = second compound 0.3 µM, first compound 0.1 µM
# [27] = second compound 0.3 µM, first compound 0.316 µM
# [28] = second compound 0.3 µM, first compound 1 µM
# [29] = second compound 0.3 µM, first compound 3.16 µM
# [30] = second compound 0.3 µM, first compound 10 µM
Structure (SMILES),IC50 (second compound 0.003 µM) [nM],IC50 (second compound 0.00949 µM) [nM],IC50 (second compound 0.03 µM) [nM],IC50 (second compound 0.0949 µM) [nM],IC50 (second compound 0.3 µM) [nM],"viability, T/C [1] [%]","viability, T/C [2] [%]","viability, T/C [3] [%]","viability, T/C [4] [%]","viability, T/C [5] [%]","viability, T/C [6] [%]","viability, T/C [7] [%]","viability, T/C [8] [%]","viability, T/C [9] [%]","viability, T/C [10] [%]","viability, T/C [11] [%]","viability, T/C [12] [%]","viability, T/C [13] [%]","viability, T/C [14] [%]","viability, T/C [15] [%]",other results
CC(C)n1c(=O)n(C)c2cnc3cc(F)c(-c4ccc(OCCCN5CCCCC5)nc4)cc3c21 + CC[C@@]1(O)C(=O)OCc2c1cc1n(c2=O)Cc2cc3c(CN(C)C)c(O)ccc3nc2-1,3970,< 31.6,< 31.6,< 31.6,< 31.6,82.7,76,80,77.3,54.7,30.8,50.8,46.3,45.3,44.5,37.3,20.5,30.3,27.4,31.4,"viability, T/C [16]: 26.9%; viability, T/C [17]: 27.5%; viability, T/C [18]: 11.9%; viability, T/C [19]: 6.85%; viability, T/C [20]: 6.85%; viability, T/C [21]: 7.33%; viability, T/C [22]: 7.9%; viability, T/C [23]: 8.2%; viability, T/C [24]: 7.69%; viability, T/C [25]: 4.4%; viability, T/C [26]: 4.06%; viability, T/C [27]: 3.67%; viability, T/C [28]: 3.49%; viability, T/C [29]: 3.07%; viability, T/C [30]: 2.74%"
CC1COCCN1c1cc(-c2ccnn2C)c2ccnc(-c3ccn[nH]3)c2n1 (stereo not given) + CC[C@@]1(O)C(=O)OCc2c1cc1n(c2=O)Cc2cc3c(CN(C)C)c(O)ccc3nc2-1,56.3,< 31.6,< 31.6,< 31.6,< 31.6,63.9,35.5,22.4,12.1,6.47,6.01,40.4,27.1,21.2,8.86,5.91,5.08,22.6,16.9,12.8,"viability, T/C [16]: 6.37%; viability, T/C [17]: 4.95%; viability, T/C [18]: 4.49%; viability, T/C [19]: 8.54%; viability, T/C [20]: 7.09%; viability, T/C [21]: 6.46%; viability, T/C [22]: 5.74%; viability, T/C [23]: 4.46%; viability, T/C [24]: 4.49%; viability, T/C [25]: 6.2%; viability, T/C [26]: 5.86%; viability, T/C [27]: 4.85%; viability, T/C [28]: 4.65%; viability, T/C [29]: 4.8%; viability, T/C [30]: 4.19%"
COc1cc(C)[nH]c(=O)c1CN1CCc2c(Cl)cc(C(OC)C3COC3)c(Cl)c2C1=O (stereo not given) + CC[C@@]1(O)C(=O)OCc2c1cc1n(c2=O)Cc2cc3c(CN(C)C)c(O)ccc3nc2-1,> 10000,5100,< 31.6,< 31.6,< 31.6,99.6,88.8,70.9,64.2,54.9,52.5,93.2,88.8,74.5,65.5,53,45.4,50.1,47.5,47.3,"viability, T/C [16]: 46.9%; viability, T/C [17]: 42.3%; viability, T/C [18]: 38.4%; viability, T/C [19]: 8.85%; viability, T/C [20]: 9.47%; viability, T/C [21]: 8.43%; viability, T/C [22]: 8.57%; viability, T/C [23]: 8.44%; viability, T/C [24]: 9.48%; viability, T/C [25]: 6.48%; viability, T/C [26]: 6.48%; viability, T/C [27]: 6.57%; viability, T/C [28]: 6.59%; viability, T/C [29]: 5.96%; viability, T/C [30]: 6.06%"
COc1ccc([C@@H](O)c2cc(-c3ncnc4cc(N5CCOCC5)ccc34)c(F)cc2Cl)nn1 + CC[C@@]1(O)C(=O)OCc2c1cc1n(c2=O)Cc2cc3c(CN(C)C)c(O)ccc3nc2-1,949,612,78.7,< 31.6,< 31.6,94.8,93.4,71,52.6,19.9,9.59,89.4,77.2,65.4,40.6,15.8,8.03,51.3,50.9,40.5,"viability, T/C [16]: 26.2%; viability, T/C [17]: 13.8%; viability, T/C [18]: 7.2%; viability, T/C [19]: 8.47%; viability, T/C [20]: 9.28%; viability, T/C [21]: 9.08%; viability, T/C [22]: 8.66%; viability, T/C [23]: 7.19%; viability, T/C [24]: 6.29%; viability, T/C [25]: 6.47%; viability, T/C [26]: 6.18%; viability, T/C [27]: 7.16%; viability, T/C [28]: 7.21%; viability, T/C [29]: 6.83%; viability, T/C [30]: 6.76%"
Cc1cc(C)c(CNC(=O)c2cc(-c3ccc(CN4CCOCC4)cc3)cc3c2cnn3C2CCCC2)c(=O)[nH]1 + CC[C@@]1(O)C(=O)OCc2c1cc1n(c2=O)Cc2cc3c(CN(C)C)c(O)ccc3nc2-1,> 10000,> 10000,< 31.6,< 31.6,< 31.6,92.3,98,95,98.9,103,94.8,74.2,84,93.5,90,86.5,62.1,37.3,39,37.3,"viability, T/C [16]: 36.1%; viability, T/C [17]: 38.2%; viability, T/C [18]: 44%; viability, T/C [19]: 5.21%; viability, T/C [20]: 5.14%; viability, T/C [21]: 5.02%; viability, T/C [22]: 5.85%; viability, T/C [23]: 5.97%; viability, T/C [24]: 6.03%; viability, T/C [25]: 5.75%; viability, T/C [26]: 5.52%; viability, T/C [27]: 4.6%; viability, T/C [28]: 5.28%; viability, T/C [29]: 5.46%; viability, T/C [30]: 5.71%"
[2H]c1nc(C)nc([2H])c1-c1cc(NC[C@@H](C)c2cccc3c(C(=O)NC)ccnc23)ncn1 + CC[C@@]1(O)C(=O)OCc2c1cc1n(c2=O)Cc2cc3c(CN(C)C)c(O)ccc3nc2-1,> 10000,> 10000,203,< 31.6,< 31.6,101,95.9,99.5,100,105,100,90.1,90.6,90.6,92.4,87.3,81.6,53.3,48.2,49.9,"viability, T/C [16]: 50.2%; viability, T/C [17]: 46.4%; viability, T/C [18]: 46%; viability, T/C [19]: 9.76%; viability, T/C [20]: 8.96%; viability, T/C [21]: 7.7%; viability, T/C [22]: 8.02%; viability, T/C [23]: 8.96%; viability, T/C [24]: 8.01%; viability, T/C [25]: 6.31%; viability, T/C [26]: 6.82%; viability, T/C [27]: 5.89%; viability, T/C [28]: 5.88%; viability, T/C [29]: 5.82%; viability, T/C [30]: 5.63%"
